Entries after “also recorded” stand apart in the source; their conditions may differ.
How the values were obtained:
[1] = system: NIH-3T3 cells; assay: Relative metabolite abundance (GC-MS), NIH-3T3 cells; format: cell-based, mouse; conditions: for TGFβ-induced depletion of TCA cycle intermediates and NEAAs: 10% Gln, metabolite 5 mM, 48 hours (FIG. 8I)
Procedure: Cells were plated in six-well cell culture plates at a concentration aimed to reach 0.5-1×10^6 cells at the time of harvest. For quantification of relative metabolite abundance, cells were cultured with glutamine-free DMEM containing different concentrations of L-glutamine and supplemented with 10% dialyzed FBS and in some experiments were treated with TGFβ for 48 hours. For the [U-^13C]and [3,4-^13C]glucose tracing experiments, cells were cultured as above, and in the last 8 hours media was replaced with DMEM without D-glucose and L-glutamine supplemented with 2 mM or 0.2 mM L-glutamine and 10 mM [U-^13C]or [3,4-^13C]D-glucose (Cambridge Isotope Laboratories) and 10% dialyzed FBS. […] For relative quantification of metabolites by gas chromatography-mass spectroscopy (GC-MS), cells were washed briefly with PBS, which was then fully aspirated and metabolism was quenched by immediately adding 1 mL of 80:20 methanol:water stored at −80° C. containing 20 μM deuterated 2-hydroxyglutarate (d5-2HG) as an internal standard. […]
GC-MS measurements were performed as described before^11. Ions used for quantification of metabolite levels were as follows: d5-2HG m/z 354; citrate m/z 465; alpha-ketoglutarate m/z 304; succinate m/z 247; fumarate m/z 245; malate m/z 335; aspartate m/z 232; hydroxyproline m/z 332; proline m/z 216; glutamate m/z 246; glutamine m/z 245; lactate m/z 219; pyruvate m/z 174. […] For relative quantification of cell samples, integrated peak areas were normalized to the internal standard d5-2HG and to the packed cell volume of each sample. Absolute quantification of hydroxyproline in tumor acid hydrolysates was performed against a standard curve of commercial trans-4-hydroxy-L-proline (Sigma). […]

[2] = system: NIH-3T3 cells; assay: Western blot of NIH-3T3 cells (collagen I, GCN2, ATF4, PC); format: cell-based, mouse; conditions: for rescue of TGFβ-induced collagen I depletion: metabolite; for GCN2 activation: cell-permeable metabolite
Description: PSCs were isolated from C57BL/6 mice by differential centrifugation as previously described^49 and their mesenchymal origin was validated by analyzing the expression of various mesenchymal and epithelial markers. MFBs were isolated from FVB/N mice by differential centrifugation as previously described^50. DB7 mouse breast cancer cells were obtained from Alexander Borowsky (University of California Davis Comprehensive Cancer Center, Sacramento, CA, USA) through an MTA to Ohio State University (OSU). KPC (Kras^LSL-G12D; Trp53^LSL-R172H; Pdx1-Cre) mouse PDAC cells were a gift from Scott Lowe (Memorial Sloan Kettering Cancer Center. (MSKCC)). All cells were cultured at 37° C. in 5% carbon dioxide (CO2) and 20% oxygen (O2) and were maintained in Dulbecco's Modified Eagles medium (DMEM) (25 mM D-glucose, 2 mM L-glutamine) supplemented with 10% fetal bovine serum (FBS) (Gemini), 100 units/ml penicillin and 100 μg/ml streptomycin. Primary PSC and MFB cells were kept in culture for no more than ten passages. Experiments with iCAFs and myCAFs were performed as previously described^29. In brief, qPSCs were generated by culturing PSCs in a dome of GFR Matrigel (Corning) in DMEM; iCAFs were generated by culturing PSCs in a dome of GFR Matrigel in DMEM conditioned by KPC cells for 48 h; myCAFs were generated by monolayer culture of PSCs. Differentiation was validated by analyzing the expression of iCAF/myCAF markers^29. For experiments with different glutamine concentrations, cells were seeded in regular DMEM and the medium was changed 5-6 hours later or the following day to glucose and glutamine-free DMEM supplemented with 10% dialyzed FBS (Gemini) and 20 mM D-glucose, 2 mM L-glutamine (100%), 0.4 mM L-glutamine (20%) or 0.2 mM L-glutamine (10%). All media were prepared by the Media Preparation Facility at MSKCC. Cells were verified as mycoplasma-free by the MycoAlert Mycoplasma Detection Kit (Lonza).
Lysates were generated by incubating cells or ground tumors in RIPA buffer (Millipore); […] of cleared lysate were analyzed by SDS-polyacrylamide gel electrophoresis (SDS-PAGE) as previously described^11. […] The following secondary antibodies were used: anti-rabbit horseradish peroxidase (HRP) (1:5,000; GE, NA934V), anti-mouse HRP (1:5,000; GE, NA931). Quantification of band intensities of collagen I relative to […] or vinculin in tumor allograft experiments was performed with Image Lab software v6.0 (Bio-Rad).

[3] = PC-deleted cells, low Gln, 48 hours (FIG. 4B; MFBs FIG. 11E)
[4] = low Gln (10%), TGFβ, 48 hours (FIG. 1E)

COC(=O)CC[C@H](N)C(=O)OC [dm-Glu, L-glutamic acid dimethylester]
TGFβ-induced depletion of TCA cycle intermediates and NEAAs [1]: rescued | rescue of TGFβ-induced collagen I depletion ([2]; 10% Gln, TGFβ, 48 hours): sufficient to restore | collagen I levels [2, 3]: increased | GCN2 activation ([2]; low Gln (10%), TGFβ, 48 hours): prevented

COC(=O)CCC(=O)C(=O)OC [dm-αKG, dimethyl alpha-ketoglutarate]
TGFβ-induced depletion of TCA cycle intermediates and NEAAs [1]: rescued | rescue of TGFβ-induced collagen I depletion ([2]; 10% Gln, TGFβ, 48 hours): able to rescue | collagen I levels [2, 3]: increased | GCN2 activation ([2]; low Gln (10%), TGFβ, 48 hours): prevented; also recorded: suppressed

TGFβ: transforming growth-factor beta; TGFβ-1 purchased from Peprotech
free levels of most TCA cycle intermediates ([1]; low Gln (10%), TGFβ, 48 hours (FIG. 1H)): substantially reduced | collagen I production ([2]; 10% Gln, TGFβ): ceased to proliferate and produce collagen I | collagen I levels ([2]; 20% Gln, TGFβ, 48 hours (FIG. 1B)): no longer able to increase | repressive phosphorylation of the E1α subunit of the pyruvate dehydrogenase (PDH) complex ([2]; 100% Gln, TGFβ 48 hours (FIG. 3B)): reduced | collagen I levels in growing cells ([2]; 100% and 50% Gln, TGFβ, 48 hours): upregulated | PC protein levels ([2]; all fibroblast types analysed, TGFβ 48 hours): reduced | ATF4 [2, 4]: upregulated | GCN2 phosphorylation [2, 4]: displayed phosphorylation
